# Patent US9452986B2, “6-heteroaryloxy- or 6-aryloxy-quinoline-2-carboxamides and method of use” (AbbVie Inc., priority 2014, dated 2016)
# Biological target: recombinant human Nav1.7 (Homo sapiens (Human), UniProt Q15858)
# Assay: FRET-based membrane potential assay, recombinant human sodium channel Nav1.7
# Format: cell-based
# Conditions: HEK293 cells stably expressing recombinant human Nav1.7; veratridine + scorpion venom depolarization; read-out: FRET-Membrane Potential Nav1.7 IC50
# In short: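 Channel activation used veratridine at its EC80, set by a dilution curve each experiment, together with Leiurus scorpion venom, added 3 min after compound. Membrane-potential ratio signals from FLIPR Tetra in HEPES-buffered HBSS were fitted to a four-parameter Hill equation for percent inhibition and IC50.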
# Sequence of recombinant human Nav1.7 (Q15858 whole entry): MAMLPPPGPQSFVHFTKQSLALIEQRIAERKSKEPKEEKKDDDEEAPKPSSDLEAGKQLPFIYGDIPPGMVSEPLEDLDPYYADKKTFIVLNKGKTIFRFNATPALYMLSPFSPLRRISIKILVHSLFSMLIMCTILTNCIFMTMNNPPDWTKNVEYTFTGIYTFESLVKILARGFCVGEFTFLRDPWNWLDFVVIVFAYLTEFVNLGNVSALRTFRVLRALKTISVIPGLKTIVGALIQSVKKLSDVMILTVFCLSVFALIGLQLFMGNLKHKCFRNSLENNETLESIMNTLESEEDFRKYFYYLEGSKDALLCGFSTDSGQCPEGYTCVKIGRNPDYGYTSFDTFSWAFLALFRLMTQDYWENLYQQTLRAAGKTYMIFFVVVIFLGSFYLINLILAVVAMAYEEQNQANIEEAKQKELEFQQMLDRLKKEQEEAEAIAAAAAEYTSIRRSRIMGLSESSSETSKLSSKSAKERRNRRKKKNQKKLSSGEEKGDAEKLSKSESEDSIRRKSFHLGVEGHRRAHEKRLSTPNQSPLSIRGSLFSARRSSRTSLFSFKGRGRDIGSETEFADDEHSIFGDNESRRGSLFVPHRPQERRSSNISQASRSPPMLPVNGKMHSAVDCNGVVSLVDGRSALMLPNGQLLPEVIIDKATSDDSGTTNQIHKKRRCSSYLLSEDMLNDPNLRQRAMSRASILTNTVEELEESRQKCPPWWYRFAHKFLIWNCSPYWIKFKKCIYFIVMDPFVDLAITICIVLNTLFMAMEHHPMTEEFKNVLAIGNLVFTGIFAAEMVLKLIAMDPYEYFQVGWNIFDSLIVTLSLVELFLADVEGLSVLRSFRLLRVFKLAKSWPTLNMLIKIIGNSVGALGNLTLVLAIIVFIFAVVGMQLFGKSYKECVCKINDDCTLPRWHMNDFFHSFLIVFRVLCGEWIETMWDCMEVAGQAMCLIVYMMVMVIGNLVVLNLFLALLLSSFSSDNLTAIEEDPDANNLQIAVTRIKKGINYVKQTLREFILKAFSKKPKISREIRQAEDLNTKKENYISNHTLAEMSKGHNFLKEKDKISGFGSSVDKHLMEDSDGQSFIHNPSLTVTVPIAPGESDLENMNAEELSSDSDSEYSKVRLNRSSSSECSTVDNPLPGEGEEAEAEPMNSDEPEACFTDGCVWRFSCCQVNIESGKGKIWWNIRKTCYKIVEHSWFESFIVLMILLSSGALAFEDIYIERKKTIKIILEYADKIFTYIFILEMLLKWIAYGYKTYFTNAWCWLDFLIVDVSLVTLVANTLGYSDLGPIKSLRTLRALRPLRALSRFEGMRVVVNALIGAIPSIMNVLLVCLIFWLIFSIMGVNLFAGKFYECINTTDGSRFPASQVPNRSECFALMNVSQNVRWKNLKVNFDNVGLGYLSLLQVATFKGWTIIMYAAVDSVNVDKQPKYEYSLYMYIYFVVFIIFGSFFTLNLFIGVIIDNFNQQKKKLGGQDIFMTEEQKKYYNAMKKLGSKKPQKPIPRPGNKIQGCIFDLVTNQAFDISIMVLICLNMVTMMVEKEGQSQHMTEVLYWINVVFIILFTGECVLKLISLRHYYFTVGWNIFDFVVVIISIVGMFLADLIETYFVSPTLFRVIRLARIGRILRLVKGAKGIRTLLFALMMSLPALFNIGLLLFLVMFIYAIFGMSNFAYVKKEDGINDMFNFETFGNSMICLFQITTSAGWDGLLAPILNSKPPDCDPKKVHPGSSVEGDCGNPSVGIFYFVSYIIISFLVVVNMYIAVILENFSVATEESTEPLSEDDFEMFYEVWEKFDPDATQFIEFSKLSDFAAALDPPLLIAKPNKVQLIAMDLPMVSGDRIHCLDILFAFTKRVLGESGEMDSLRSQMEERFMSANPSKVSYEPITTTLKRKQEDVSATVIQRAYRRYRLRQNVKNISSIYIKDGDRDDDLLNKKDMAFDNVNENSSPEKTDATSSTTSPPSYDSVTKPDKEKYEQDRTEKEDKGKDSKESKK
row,Compound,IC50
1,"CCN(CC)C(=O)CCNC(=O)c1ccc2cc(Oc3ccc(C(F)F)cn3)ccc2n1 [Example 467, N-[3-(diethylamino)-3-oxopropyl]-6-{[5-(difluoromethyl)pyridin-2-yl]oxy}quinoline-2-carboxamide]",521 nM
2,"CC(C)NC(=O)CN(C)C(=O)c1ccc2cc(Oc3ccc(C(F)F)cn3)ccc2n1 [Example 468, 6-{[5-(difluoromethyl)pyridin-2-yl]oxy}-N-[2-(isopropylamino)-2-oxoethyl]-N-methylquinoline-2-carboxamide]",13800 nM
3,"O=C(NCCN1CCNCC1=O)c1ccc2cc(Oc3ccc(C(F)(F)F)cn3)ccc2n1 [Example 469, N-[2-(2-oxopiperazin-1-yl)ethyl]-6-{[5-(trifluoromethyl)pyridin-2-yl]oxy}quinoline-2-carboxamide]",1710 nM
4,"O=C(NCC1CNC1)c1ccc2cc(Oc3ccc(C(F)(F)F)cn3)ccc2n1 [Example 470, N-(azetidin-3-ylmethyl)-6-{[5-(trifluoromethyl)pyridin-2-yl]oxy}quinoline-2-carboxamide]",6600 nM
5,"CC(C)(O)CNC(=O)c1ccc2cc(Oc3ccc(C(F)(F)F)nc3)ccc2n1 [Example 471, N-(2-hydroxy-2-methylpropyl)-6-{[6-(trifluoromethyl)pyridin-3-yl]oxy}quinoline-2-carboxamide]",2400 nM
6,"N#CCCCN1CCN(C(=O)c2ccc3cc(Oc4ccc(C(F)(F)F)cn4)ccc3n2)CC1 [Example 472, 4-{4-[(6-{[5-(trifluoromethyl)pyridin-2-yl]oxy}quinolin-2-yl)carbonyl]piperazin-1-yl}butanenitrile]",7760 nM
7,"N#CCCN1CCN(C(=O)c2ccc3cc(Oc4ccc(C(F)(F)F)cn4)ccc3n2)CC1 [Example 473, 3-{4-[(6-{[5-(trifluoromethyl)pyridin-2-yl]oxy}quinolin-2-yl)carbonyl]piperazin-1-yl}propanenitrile]",16200 nM
8,"N#CC1CCN(C(=O)c2ccc3cc(Oc4ccc(C(F)(F)F)cn4)ccc3n2)CC1 [Example 474, 1-[(6-{[5-(trifluoromethyl)pyridin-2-yl]oxy}quinolin-2-yl)carbonyl]piperidine-4-carbonitrile]",9100 nM
9,"O=C(c1ccc2cc(Oc3ccc(C(F)(F)F)cn3)ccc2n1)N1CC2(C1)OCCO2 [Example 476, 5,8-dioxa-2-azaspiro[3.4]oct-2-yl(6-{[5-(trifluoromethyl)pyridin-2-yl]oxy}quinolin-2-yl)methanone]",3920 nM
10,"O=C(N[C@@H]1CS(=O)(=O)C[C@H]1O)c1ccc2cc(Oc3ccc(C(F)F)cn3)ccc2n1 [Example 477, 6-{[5-(difluoromethyl)pyridin-2-yl]oxy}-N-[(3S,4S)-4-hydroxy-1,1-dioxidotetrahydrothiophen-3-yl]quinoline-2-carboxamide]",5510 nM
11,"O=C(c1ccc2cc(Oc3ccc(C(F)(F)F)cn3)ccc2n1)N1CC2OCOC2C1 (centres unmarked) [Example 478, tetrahydro-5H-[1,3]dioxolo[4,5-c]pyrrol-5-yl(6-{[5-(trifluoromethyl)pyridin-2-yl]oxy}quinolin-2-yl)methanone]",5940 nM
12,"CS(=O)(=O)C1CN(C(=O)c2ccc3cc(Oc4ccc(C(F)F)cn4)ccc3n2)C1 [Example 479, (6-{[5-(difluoromethyl)pyridin-2-yl]oxy}quinolin-2-yl)[3-(methylsulfonyl)azetidin-1-yl]methanone]",3190 nM
13,"CN(C(=O)c1ccc2cc(Oc3ccc(C(F)(F)F)cn3)ccc2n1)C1COC1 [Example 480, N-methyl-N-(oxetan-3-yl)-6-{[5-(trifluoromethyl)pyridin-2-yl]oxy}quinoline-2-carboxamide]",19900 nM
14,"O=C(NC1CC[S+]([O-])CC1)c1ccc2cc(Oc3ccc(C(F)F)cn3)ccc2n1 (centres unmarked) [Example 481, 6-{[5-(difluoromethyl)pyridin-2-yl]oxy}-N-(1-oxidotetrahydro-2H-thiopyran-4-yl)quinoline-2-carboxamide]",2630 nM
15,"O=C(NC1CCC(F)(F)C1)c1ccc2cc(Oc3ccc(C(F)(F)F)cn3)ccc2n1 (centres unmarked) [Example 485, N-(3,3-difluorocyclopentyl)-6-{[5-(trifluoromethyl)pyridin-2-yl]oxy}quinoline-2-carboxamide]",3140 nM
16,"COCC1(F)CCN(C(=O)c2ccc3cc(Oc4ccc(C(F)(F)F)cn4)ccc3n2)C1 (centres unmarked) [Example 487, [3-fluoro-3-(methoxymethyl)pyrrolidin-1-yl](6-{[5-(trifluoromethyl)pyridin-2-yl]oxy}quinolin-2-yl)methanone]",919 nM
17,"O=C(c1ccc2cc(Oc3ccc(C(F)(F)F)cn3)ccc2n1)N1CCC(F)(COc2ccncc2)C1 (centres unmarked) [Example 489, {3-fluoro-3-[(pyridin-4-yloxy)methyl]pyrrolidin-1-yl}(6-{[5-(trifluoromethyl)pyridin-2-yl]oxy}quinolin-2-yl)methanone]",1100 nM
18,"O=C(c1ccc2cc(Oc3ccc(C(F)(F)F)cn3)ccc2n1)N1CCC(F)(COc2cccnc2)C1 (centres unmarked) [Example 490, {3-fluoro-3-[(pyridin-3-yloxy)methyl]pyrrolidin-1-yl}(6-{[5-(trifluoromethyl)pyridin-2-yl]oxy}quinolin-2-yl)methanone]",1420 nM
19,"O=C(c1ccc2cc(Oc3ccc(C(F)(F)F)cn3)ccc2n1)N1CCC(F)(COc2ccccc2)C1 (centres unmarked) [Example 491, [3-fluoro-3-(phenoxymethyl)pyrrolidin-1-yl](6-{[5-(trifluoromethyl)pyridin-2-yl]oxy}quinolin-2-yl)methanone]",4990 nM
20,"O=C(NCC1CN(C(=O)c2ccc3cc(Oc4ccc(C(F)(F)F)cn4)ccc3n2)CC1F)OCc1ccccc1 (centres unmarked) [Example 492, benzyl ({4-fluoro-1-[(6-{[5-(trifluoromethyl)pyridin-2-yl]oxy}quinolin-2-yl)carbonyl]pyrrolidin-3-yl}methyl)carbamate]",858 nM
21,"COCCOCC1(F)CCN(C(=O)c2ccc3cc(Oc4ccc(C(F)(F)F)cn4)ccc3n2)C1 (centres unmarked) [Example 493, {3-fluoro-3-[(2-methoxyethoxy)methyl]pyrrolidin-1-yl}(6-{[5-(trifluoromethyl)pyridin-2-yl]oxy}quinolin-2-yl)methanone]",802 nM
22,"O=C(c1ccc2cc(Oc3ccc(C(F)(F)F)cn3)ccc2n1)N1CCC2(COC2)C1 [Example 494, 2-oxa-6-azaspiro[3.4]oct-6-yl(6-{[5-(trifluoromethyl)pyridin-2-yl]oxy}quinolin-2-yl)methanone]",9320 nM
23,"O=C(c1ccc2cc(Oc3ccc(C(F)(F)F)cn3)ccc2n1)N1C[C@@H](F)C[C@@H]1CO [Example 495, [(2R,4S)-4-fluoro-2-(hydroxymethyl)pyrrolidin-1-yl](6-{[5-(trifluoromethyl)pyridin-2-yl]oxy}quinolin-2-yl)methanone]",1690 nM
24,"O=C(c1ccc2cc(Oc3ccc(C(F)(F)F)cn3)ccc2n1)N1CC(F)(F)C[C@@H]1CO [Example 496, [(2R)-4,4-difluoro-2-(hydroxymethyl)pyrrolidin-1-yl](6-{[5-(trifluoromethyl)pyridin-2-yl]oxy}quinolin-2-yl)methanone]",2910 nM
25,"O=C(c1ccc2cc(Oc3ccc(C(F)(F)F)cn3)ccc2n1)N1CC(F)(F)C[C@H]1CO [Example 497, [(2S)-4,4-difluoro-2-(hydroxymethyl)pyrrolidin-1-yl](6-{[5-(trifluoromethyl)pyridin-2-yl]oxy}quinolin-2-yl)methanone]",3430 nM
26,"COc1cccc(N2CCN(C(=O)c3ccc4cc(Oc5ccc(C(F)(F)F)cn5)ccc4n3)CC2=O)c1 [Example 498, 1-(3-methoxyphenyl)-4-[(6-{[5-(trifluoromethyl)pyridin-2-yl]oxy}quinolin-2-yl)carbonyl]piperazin-2-one]",923 nM
27,"O=C(NC1CSC1)c1ccc2cc(Oc3ccc(C(F)(F)F)cn3)ccc2n1 [Example 499, N-(thietan-3-yl)-6-{[5-(trifluoromethyl)pyridin-2-yl]oxy}quinoline-2-carboxamide]",938 nM
28,"Cc1ccccc1NC(=O)CCNC(=O)c1ccc2cc(Oc3ccc(C(F)(F)F)cn3)ccc2n1 [Example 500, N-{3-[(2-methylphenyl)amino]-3-oxopropyl}-6-{[5-(trifluoromethyl)pyridin-2-yl]oxy}quinoline-2-carboxamide]",293 nM
29,"COc1ccccc1N1CC(NC(=O)c2ccc3cc(Oc4ccc(C(F)(F)F)cn4)ccc3n2)CC1=O (centres unmarked) [Example 502, N-[1-(2-methoxyphenyl)-5-oxopyrrolidin-3-yl]-6-{[5-(trifluoromethyl)pyridin-2-yl]oxy}quinoline-2-carboxamide]",429 nM

# Same assay, conditions: read-out: FRET-Membrane Potential Nav1.7 IC50
row,Compound,IC50
1,"O=C(NC1COC1)c1ccc2cc(Oc3ccc(C(F)F)cn3)ccc2n1 [Example 475, 6-{[5-(difluoromethyl)pyridin-2-yl]oxy}-N-(oxetan-3-yl)quinoline-2-carboxamide]",1960 nM
2,"O=C(NCC1COC1)c1ccc2cc(Oc3ccc(C(F)(F)F)cn3)ccc2n1 [Example 482, N-(oxetan-3-ylmethyl)-6-{[5-(trifluoromethyl)pyridin-2-yl]oxy}quinoline-2-carboxamide]",569 nM
3,"N#Cc1ccc(Oc2ccc3nc(C(=O)NC4CCNC(=O)C4)ccc3c2)cc1 (centres unmarked) [Example 484, 6-(4-cyanophenoxy)-N-(2-oxopiperidin-4-yl)quinoline-2-carboxamide]",879 nM
4,"O=C(NC1CCC(F)(F)C1)c1ccc2cc(Oc3ccc(C(F)F)cn3)ccc2n1 (centres unmarked) [Example 486, N-(3,3-difluorocyclopentyl)-6-{[5-(difluoromethyl)pyridin-2-yl]oxy}quinoline-2-carboxamide]",2540 nM
5,"CCOCC1(F)CCN(C(=O)c2ccc3cc(Oc4ccc(C(F)(F)F)cn4)ccc3n2)C1 (centres unmarked) [Example 488, [3-(ethoxymethyl)-3-fluoropyrrolidin-1-yl](6-{[5-(trifluoromethyl)pyridin-2-yl]oxy}quinolin-2-yl)methanone]",526 nM
6,"CN(C)C(=O)[C@H](Cc1ccccc1)NC(=O)c1ccc2cc(Oc3ccc(C(F)(F)F)cn3)ccc2n1 [Example 501, N-[(2S)-1-(dimethylamino)-1-oxo-3-phenylpropan-2-yl]-6-{[5-(trifluoromethyl)pyridin-2-yl]oxy}quinoline-2-carboxamide]",734 nM
